From patent US20060252930A1 (priority 2003, published 2006)
Values joined by “and” are separate entries in the source; they are usually repeats but may differ in a detail not shown here. Equal values may be shown once. Read-outs that look alike come from different tables or passages of the source.

Legend:
[1] = test system: Aspergillus niger ATCC 6275; experiment: Enhancing activity of azole antifungal agent, susceptibility test for conidiogenous fungi NCCLS M38-P (Alamar Blue); type: cell-based; conditions: for enhancing action of the activity of azole antifungal agent (in words): Aspergillus niger ATCC 6275, summary statement
Procedure: (§1) Candida albicans ATCC 64548, fluconazole resistant Candida albicans ATCC 64550 and Aspergillus niger ATCC 6275 were used as test organisms.
Enhancing activity of azole antifungal agent on Aspergillus niger ATCC 6275 was determined by the drug susceptibility test method for conidiogenous fungi proposed by NCCLS (M38-P). Spores of the strain of Aspergillus niger ATCC 6275 were suspended in the physiological saline to maintain a value at OD 530 nm being 0.09-0.11. The suspension was further diluted 100 times with PRMI1640 medium to prepare inoculating microorganism solution. […] Further, FKI-1366 substance A, FKI-1366 substance B or FKI-1366 substance C, 10 μl, each of which was prepared for maintaining the final concentration of 2.5, 5.0 and 10 μg/ml, was added. Finally, the test microorganism suspension 80 μl was added. Alamar Blue solution (Asahi Glass Co., Japan) 20 μl, a coloring reagent, was added thereto and incubated at 35° C. for 24 hours. […] When IC50 value without addition of FKI-1366 substance A, FKI-1366 substance B or FKI-1366 substance C was set as 1.0, a ratio of IC50 with addition of FKI-1366 substance A, FKI-1366 substance B or FKI-1366 substance C was determined as the enhancing activity.

[2] = test system: Candida albicans ATCC 64548; experiment: Enhancing activity of azole antifungal agent, yeast susceptibility test NCCLS M27-A; type: cell-based; conditions: for enhancing action of the activity of azole antifungal agent (in words): C. albicans ATCC64548, summary statement; for Ratio (enhancing activity): IC50 without addition set as 1.0
Procedure: as §1
(§2) Enhancing activity of azole antifungal agent on Candida albicans ATCC 64548 and ATCC 64550 was determined by yeast susceptibility test method, National Committee for Clinical Standard (NCCLS) Standard Method M27-A. Each suspension of inoculating strain was spread over YM agar medium (0.5% yeast extract, 0.5% malt extract, 0.5% peptone, 1% glucose and 1.5% agar) and cultured at 35° C. for 36 hours. Five grown colonies with a diameter 1 mm or more were collected and the colonies were suspended in physiological saline 5 ml. The suspension was further diluted with physiological saline to prepare the test microorganism suspension having McFarland transmittance 0.5. RPMI 1640 medium 70 μl was added into 96 well plastic plate (Corning Inc., U.S.). […] Finally, the test microorganism suspension 100 μl was added and incubated at 35° C. for 24 hours. […] When IC50 value without addition of FKI-1366 substance A, FKI-1366 substance B or FKI-1366 substance C was set as 1.0, a ratio of IC50 with addition of FKI-1366 substance A, FKI-1366 substance B or FKI-1366 substance C was determined as the enhancing activity.

[3] = Solubility in solvents; type: physicochemical
[4] = test system: fluconazole resistant Candida albicans ATCC 64550; type: cell-based; conditions: for Ratio (enhancing activity): IC50 without addition set as 1.0; for enhancing action of the activity of azole antifungal agent (in words): fluconazole resistant C. albicans ATCC64550, summary statement
Procedure: as §1, §2

[5] = Table 1, miconazole + FKI-1366 substance 2.5 μg/ml, IC50 without addition set as 1.0
[6] = Table 1, miconazole + FKI-1366 substance 5.0 μg/ml, IC50 without addition set as 1.0
[7] = Table 1, miconazole + FKI-1366 substance 10 μg/ml, IC50 without addition set as 1.0
[8] = Table 2 (fluconazole) + FKI-1366 substance 2.5 μg/ml, IC50 without addition set as 1.0
[9] = Table 2 (fluconazole) + FKI-1366 substance 5.0 μg/ml, IC50 without addition set as 1.0
[10] = Table 2 (fluconazole) + FKI-1366 substance 10 μg/ml, IC50 without addition set as 1.0
[11] = Table 1, miconazole + FKI-1366 substance 0.5 μg/ml
[12] = Table 1, miconazole + FKI-1366 substance 1.0 μg/ml
[13] = Table 1, miconazole + FKI-1366 substance 2.0 μg/ml
[14] = Table 2 (fluconazole) + FKI-1366 substance 0.5 μg/ml
[15] = Table 2 (fluconazole) + FKI-1366 substance 1.0 μg/ml
[16] = Table 2 (fluconazole) + FKI-1366 substance 2.0 μg/ml
[17] = DMSO, methanol, chloroform and ethyl acetate

| SMILES | enhancing action of the activity of azole antifungal agent (in words) [1] | Ratio (enhancing activity) [1, 5] | Ratio (enhancing activity) [1, 6] | Ratio (enhancing activity) [1, 7] | Ratio (enhancing activity) [1, 8] | Ratio (enhancing activity) [1, 9] | Ratio (enhancing activity) [1, 10] | enhancing action of the activity of azole antifungal agent (in words) [2] | Ratio (enhancing activity) [2, 11] | Ratio (enhancing activity) [2, 12] | Ratio (enhancing activity) [2, 13] | Solubility in solvents [3, 17] | Solubility in solvents ([3]; water and n-hexane) | Ratio (enhancing activity) [4, 11] | Ratio (enhancing activity) [4, 12] | Ratio (enhancing activity) [4, 13] | Ratio (enhancing activity) [4, 14] | Ratio (enhancing activity) [4, 15] | Ratio (enhancing activity) [4, 16] | enhancing action of the activity of azole antifungal agent (in words) [4] | other results |
| --- | --- | --- | --- | --- | --- | --- | --- | --- | --- | --- | --- | --- | --- | --- | --- | --- | --- | --- | --- | --- | --- |
| CC(C)C1OC(=O)C(Cc2ccccc2)N(C)C(=O)C(C(C)C)OC(=O)C(Cc2ccccc2)N(C)C(=O)C(C(C)C)OC(=O)C(Cc2ccccc2)NC1=O (stereo not shown) [FKI-1366 substance A] | enhancing action | 5.5 | 9.6 | 10.9 | 5.5 | 9.6 | 10.9 | enhancing action | 1.0 | 1.4 | >55 | Soluble | Slightly soluble | 1.2 | 5.0 | >60 | 1.2 | 5.0 | >60 | enhancing action | Ratio (enhancing activity) [2, 14]: 1.0; Ratio (enhancing activity) [2, 15]: 1.4; Ratio (enhancing activity) [2, 16]: >55 |
| CC(C)CC1NC(=O)C(C(C)C)OC(=O)C(Cc2ccccc2)N(C)C(=O)C(C(C)C)OC(=O)C(Cc2ccccc2)N(C)C(=O)C(C(C)C)OC1=O (stereo not shown) [FKI-1366 substance B] | enhancing action | 1.8 | 2.4 | 3.5 |  |  |  | enhancing action | 1.7 | 6.0 | >55 | Soluble | Slightly soluble | 1.4 | 4.2 | >60 | 1.4 | 4.2 | >60 | enhancing action | Ratio (enhancing activity) [1]: 1.8 and 2.4 and 3.5 |
| CC(C)CC1OC(=O)C(Cc2ccccc2)N(C)C(=O)C(C(C)C)OC(=O)C(Cc2ccccc2)N(C)C(=O)C(C(C)C)OC(=O)C(Cc2ccccc2)N(C)C1=O (stereo not shown) [FKI-1366 substance C] | enhancing action | 5.2 | 8.0 | 11.0 | 5.2 | 8.0 | 11.0 | enhancing action | 1.0 | 2.5 | >55 | Soluble | Slightly soluble | 1.0 | 1.1 | 3.9 | 1.0 | 1.1 | 3.9 | enhancing action | Ratio (enhancing activity) [2, 14]: 1.0; Ratio (enhancing activity) [2, 15]: 2.5; Ratio (enhancing activity) [2, 16]: >55 |
